Experimental data as given in ChEMBL document CHEMBL1201862, “PubChem BioAssay data set” (2004).
The source made the active and inactive calls.

How the values were obtained:
Bcl-2-like protein 10 = target: T1, Bcl-2-like protein 10 (Homo sapiens, UniProt Q9HD36); experiment: Bcl-B/TR3 peptide binding disruption – biochemical, fluorescence polarization, FITC-TR3 peptide, selectivity assay for Bfl-1 inhibitor project, primary screen (AID 748);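 further: fluorescence polarization from a fluorescein-labelled TR3 peptide binding purified Bcl-B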
T1 sequence (Q9HD36 whole entry): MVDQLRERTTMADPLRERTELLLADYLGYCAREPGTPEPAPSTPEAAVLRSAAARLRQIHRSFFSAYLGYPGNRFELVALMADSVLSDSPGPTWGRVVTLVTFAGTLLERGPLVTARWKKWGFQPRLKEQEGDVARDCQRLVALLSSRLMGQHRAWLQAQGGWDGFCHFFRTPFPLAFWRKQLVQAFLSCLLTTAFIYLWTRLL

[1] = target: T2, Carboxy-terminal domain RNA polymerase II polypeptide A small phosphatase 1 (Homo sapiens, UniProt Q9GZU7); experiment: CTDSP1 inhibitors, concentration-response, biochemical, absorbance readout, ultra-high-throughput screen actives (AID 540297); assay type: functional
T2 sequence (Q9GZU7 whole entry): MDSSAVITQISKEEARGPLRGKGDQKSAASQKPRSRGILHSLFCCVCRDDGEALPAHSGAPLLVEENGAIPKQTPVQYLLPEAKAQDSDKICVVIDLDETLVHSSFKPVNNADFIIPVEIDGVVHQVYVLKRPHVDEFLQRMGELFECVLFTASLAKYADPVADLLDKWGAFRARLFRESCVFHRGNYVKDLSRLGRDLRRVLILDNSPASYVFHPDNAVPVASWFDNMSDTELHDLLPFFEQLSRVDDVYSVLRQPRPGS

[2] = M. tuberculosis H37Rv growth inhibitors, H37Rv strain (AID 1626); assay type: functional
[3] = CCR5-tropic HIV-1 fusion blockers – cell-based, CCR5-tropic Env, dose response (AID 2279); assay type: functional
[4] = target: T3, Probable nicotinate-nucleotide adenylyltransferase (Staphylococcus aureus (strain N315), UniProt P65502); assay type: functional, Staphylococcus aureus subsp. aureus N315;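 on IC50 Mean: confirmatory dose-response retesting of NadD inhibitor hits first found in an ultra-high-throughput screen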
[5] = target: T3, Probable nicotinate-nucleotide adenylyltransferase; assay type: functional, Staphylococcus aureus subsp. aureus N315; settings: read-out: IC50_Mean
Fatty acid synthase [6] = target: T4, Fatty acid synthase (Homo sapiens, UniProt P49327); experiment: inhibition of human FAS-TE enzyme activity – biochemical, endpoint fluorescence intensity, uHTS hits, dose response (AID 624327); assay type: functional;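 further: fluorescence from hydrolysis of an O-methyl fluorescein acyl ester substrate by the enzyme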
Fatty acid synthase [7] = target: T4, Fatty acid synthase; experiment: inhibition of human FAS-TE enzyme activity – biochemical, kinetic fluorescence intensity, dose response (AID 624326); assay type: functional;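 further: rate of fluorescence rise from hydrolysis of a fluorogenic O-methyl fluorescein ester substrate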
[8] = target: Peroxisome proliferator-activated receptor gamma/Nuclear receptor coactivator 2 (Homo sapiens, UniProt P37231); assay type: functional;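 further: agonist potency for raising coactivator recruitment to the receptor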
[9] = target: Peroxisome proliferator-activated receptor gamma/Nuclear receptor coactivator 1 (Homo sapiens, UniProt P37231); assay type: functional;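 further: agonist potency as compounds enhance coactivator SRC-1 recruitment to PPARgamma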
[10] = target: Peroxisome proliferator-activated receptor gamma/Nuclear receptor coactivator 3 (Homo sapiens, UniProt P37231); assay type: functional;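 further: agonist potency for raising coactivator recruitment to the receptor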
[11] = target: T5, DNA dC->dU-editing enzyme APOBEC-3A (Homo sapiens, UniProt P31941); experiment: A3A deaminase inhibition for selectivity – biochemical, dose response (AID 504722); assay type: functional
[12] = target: T6, DNA dC->dU-editing enzyme APOBEC-3G (Homo sapiens, UniProt Q9HC16); experiment: Dose Response confirmation of small molecule APOBEC3G DNA Deaminase Inhibitors via a fluorescence-based single-stranded DNA deaminase assay. [Related pubchem assays (depositor defined):AID493012, AID493028]; assay type: functional
Mucolipin-3 = target: T7, Mucolipin-3 (Homo sapiens, UniProt Q8TDD5); experiment: Dose response cell-based high-throughput screening assay for agonists of the transient receptor potential channel ML3 (TRPML3). [Related pubchem assays: 1526, 1424, 1448 ]; assay type: functional
T7 sequence (Q8TDD5 whole entry): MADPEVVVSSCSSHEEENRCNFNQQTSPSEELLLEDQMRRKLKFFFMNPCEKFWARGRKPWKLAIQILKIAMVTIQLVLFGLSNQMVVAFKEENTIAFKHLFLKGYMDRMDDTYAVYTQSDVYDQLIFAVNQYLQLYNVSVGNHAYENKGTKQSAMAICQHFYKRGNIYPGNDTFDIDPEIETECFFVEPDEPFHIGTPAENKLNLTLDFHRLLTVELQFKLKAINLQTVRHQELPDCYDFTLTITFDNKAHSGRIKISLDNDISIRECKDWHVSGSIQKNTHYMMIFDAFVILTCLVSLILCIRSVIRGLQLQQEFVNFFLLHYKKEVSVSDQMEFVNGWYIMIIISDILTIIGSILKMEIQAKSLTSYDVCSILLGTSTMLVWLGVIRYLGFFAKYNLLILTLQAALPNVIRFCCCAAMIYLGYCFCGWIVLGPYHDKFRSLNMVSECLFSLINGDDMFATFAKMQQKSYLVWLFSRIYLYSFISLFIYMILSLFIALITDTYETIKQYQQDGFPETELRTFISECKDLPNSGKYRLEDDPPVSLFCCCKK

Ion channel NompC = Ion channel NompC (Danio rerio, UniProt Q7T1G6); experiment: Fluorescence counterscreen assay for TRPML3 agonists: dose response cell-based high-throughput screening assay to identify agonists of the transient receptor potential channel N1 (TRPN1). [Related pubchem assays: 1526, 1424, 1448 ]; assay type: functional
[13] = target: T5, DNA dC->dU-editing enzyme APOBEC-3A; experiment: Dose Response confirmation of small molecule APOBEC3A DNA Deaminase Inhibitors via a fluorescence-based single-stranded DNA deaminase assay. [Related pubchem assays (depositor defined):AID493011, AID493024]; assay type: functional
[14] = target: T6, DNA dC->dU-editing enzyme APOBEC-3G; assay type: functional
Galanin receptor type 3 = Galanin receptor type 3 (Homo sapiens, UniProt O60755); experiment: Fluorescence-based cell-based primary high throughput dose response assay to identify antagonists of the Galanin Receptor 3 (GalR3).; assay type: functional
cells = assay type: functional, cell-based; settings: HEK-CNG

T6 sequence (Q9HC16 whole entry): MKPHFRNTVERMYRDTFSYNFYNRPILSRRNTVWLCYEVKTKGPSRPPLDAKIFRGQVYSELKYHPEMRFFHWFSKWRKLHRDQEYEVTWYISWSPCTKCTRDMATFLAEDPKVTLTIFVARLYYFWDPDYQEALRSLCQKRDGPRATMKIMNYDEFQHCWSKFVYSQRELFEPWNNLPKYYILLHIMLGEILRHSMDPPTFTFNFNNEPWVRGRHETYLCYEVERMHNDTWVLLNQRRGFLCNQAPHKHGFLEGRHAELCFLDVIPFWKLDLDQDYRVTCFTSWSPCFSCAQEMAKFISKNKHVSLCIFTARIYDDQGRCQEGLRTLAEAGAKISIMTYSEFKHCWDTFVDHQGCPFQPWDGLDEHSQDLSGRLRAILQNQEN
T5 sequence (P31941 whole entry): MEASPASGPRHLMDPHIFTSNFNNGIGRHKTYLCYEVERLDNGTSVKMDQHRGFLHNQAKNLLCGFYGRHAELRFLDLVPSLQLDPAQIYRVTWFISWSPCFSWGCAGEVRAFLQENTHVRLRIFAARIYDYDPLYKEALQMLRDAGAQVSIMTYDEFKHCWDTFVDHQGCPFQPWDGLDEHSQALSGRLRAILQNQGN
T4 sequence (P49327 whole entry): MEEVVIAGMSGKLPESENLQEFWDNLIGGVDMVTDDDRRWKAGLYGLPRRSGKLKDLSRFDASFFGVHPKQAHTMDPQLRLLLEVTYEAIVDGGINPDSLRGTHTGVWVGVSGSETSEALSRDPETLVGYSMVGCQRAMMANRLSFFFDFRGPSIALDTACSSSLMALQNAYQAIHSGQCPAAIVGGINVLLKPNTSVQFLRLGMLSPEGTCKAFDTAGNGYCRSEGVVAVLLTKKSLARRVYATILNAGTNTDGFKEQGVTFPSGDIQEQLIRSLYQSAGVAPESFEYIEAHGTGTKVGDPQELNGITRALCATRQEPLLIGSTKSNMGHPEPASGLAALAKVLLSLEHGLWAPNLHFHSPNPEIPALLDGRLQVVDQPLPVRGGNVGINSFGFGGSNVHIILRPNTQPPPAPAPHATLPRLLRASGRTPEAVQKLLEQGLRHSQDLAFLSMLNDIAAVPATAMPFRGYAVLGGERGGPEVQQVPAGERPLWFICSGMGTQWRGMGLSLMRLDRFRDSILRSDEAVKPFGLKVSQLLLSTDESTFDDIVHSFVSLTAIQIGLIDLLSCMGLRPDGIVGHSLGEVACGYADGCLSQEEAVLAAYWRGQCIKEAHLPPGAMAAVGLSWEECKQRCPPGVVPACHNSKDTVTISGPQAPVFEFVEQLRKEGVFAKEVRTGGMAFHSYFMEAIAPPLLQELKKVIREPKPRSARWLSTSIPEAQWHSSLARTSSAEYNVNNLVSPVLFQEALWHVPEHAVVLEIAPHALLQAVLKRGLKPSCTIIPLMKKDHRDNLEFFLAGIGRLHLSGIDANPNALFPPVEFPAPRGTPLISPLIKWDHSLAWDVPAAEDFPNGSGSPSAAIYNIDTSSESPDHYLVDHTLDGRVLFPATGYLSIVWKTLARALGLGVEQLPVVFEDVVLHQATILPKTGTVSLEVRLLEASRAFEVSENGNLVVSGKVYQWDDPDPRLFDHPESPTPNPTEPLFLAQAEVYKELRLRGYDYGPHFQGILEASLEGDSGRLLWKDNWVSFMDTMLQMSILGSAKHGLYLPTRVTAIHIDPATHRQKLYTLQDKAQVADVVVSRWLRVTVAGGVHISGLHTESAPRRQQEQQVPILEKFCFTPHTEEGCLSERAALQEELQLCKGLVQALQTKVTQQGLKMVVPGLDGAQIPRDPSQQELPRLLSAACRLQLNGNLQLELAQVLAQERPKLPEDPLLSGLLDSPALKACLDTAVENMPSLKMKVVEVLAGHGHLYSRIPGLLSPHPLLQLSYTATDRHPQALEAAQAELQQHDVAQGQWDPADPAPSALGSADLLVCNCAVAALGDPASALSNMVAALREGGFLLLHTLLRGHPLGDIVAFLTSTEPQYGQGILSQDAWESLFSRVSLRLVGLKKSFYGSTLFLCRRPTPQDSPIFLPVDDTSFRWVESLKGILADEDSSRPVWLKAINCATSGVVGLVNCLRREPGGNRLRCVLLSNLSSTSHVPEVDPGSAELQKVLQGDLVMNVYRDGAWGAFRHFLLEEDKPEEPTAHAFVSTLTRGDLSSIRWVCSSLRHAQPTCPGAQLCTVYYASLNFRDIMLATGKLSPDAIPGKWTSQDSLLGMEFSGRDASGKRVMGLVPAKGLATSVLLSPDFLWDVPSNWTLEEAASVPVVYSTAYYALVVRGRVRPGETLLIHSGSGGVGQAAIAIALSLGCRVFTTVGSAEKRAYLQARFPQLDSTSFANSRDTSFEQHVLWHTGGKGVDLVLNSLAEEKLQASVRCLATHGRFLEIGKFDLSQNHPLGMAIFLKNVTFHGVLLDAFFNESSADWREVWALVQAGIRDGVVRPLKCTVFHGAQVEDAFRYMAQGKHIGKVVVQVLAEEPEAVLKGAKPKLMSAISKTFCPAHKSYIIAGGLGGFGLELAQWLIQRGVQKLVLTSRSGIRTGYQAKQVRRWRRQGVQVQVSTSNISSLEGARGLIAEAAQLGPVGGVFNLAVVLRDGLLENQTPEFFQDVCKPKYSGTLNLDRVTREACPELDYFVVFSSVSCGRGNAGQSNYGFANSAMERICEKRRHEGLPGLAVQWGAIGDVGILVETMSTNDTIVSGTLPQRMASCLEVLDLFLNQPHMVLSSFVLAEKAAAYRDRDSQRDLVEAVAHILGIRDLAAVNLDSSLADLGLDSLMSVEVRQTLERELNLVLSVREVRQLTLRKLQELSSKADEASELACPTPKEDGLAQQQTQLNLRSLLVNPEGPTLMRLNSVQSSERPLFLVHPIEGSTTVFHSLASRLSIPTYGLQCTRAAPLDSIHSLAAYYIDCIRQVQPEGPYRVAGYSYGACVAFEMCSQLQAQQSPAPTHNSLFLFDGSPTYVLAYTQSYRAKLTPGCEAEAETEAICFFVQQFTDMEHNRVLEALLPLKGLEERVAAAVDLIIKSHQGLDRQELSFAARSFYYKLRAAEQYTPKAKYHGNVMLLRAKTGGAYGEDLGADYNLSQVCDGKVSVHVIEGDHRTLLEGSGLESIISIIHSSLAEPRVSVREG
T3 sequence (P65502 whole entry): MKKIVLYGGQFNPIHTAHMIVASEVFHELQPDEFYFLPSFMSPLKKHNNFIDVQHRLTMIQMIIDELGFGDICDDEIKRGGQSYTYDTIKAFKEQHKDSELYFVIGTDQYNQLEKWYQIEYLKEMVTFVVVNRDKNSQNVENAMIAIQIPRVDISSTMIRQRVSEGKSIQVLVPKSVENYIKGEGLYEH
Ion channel NompC, sequence (Q7T1G6 whole entry): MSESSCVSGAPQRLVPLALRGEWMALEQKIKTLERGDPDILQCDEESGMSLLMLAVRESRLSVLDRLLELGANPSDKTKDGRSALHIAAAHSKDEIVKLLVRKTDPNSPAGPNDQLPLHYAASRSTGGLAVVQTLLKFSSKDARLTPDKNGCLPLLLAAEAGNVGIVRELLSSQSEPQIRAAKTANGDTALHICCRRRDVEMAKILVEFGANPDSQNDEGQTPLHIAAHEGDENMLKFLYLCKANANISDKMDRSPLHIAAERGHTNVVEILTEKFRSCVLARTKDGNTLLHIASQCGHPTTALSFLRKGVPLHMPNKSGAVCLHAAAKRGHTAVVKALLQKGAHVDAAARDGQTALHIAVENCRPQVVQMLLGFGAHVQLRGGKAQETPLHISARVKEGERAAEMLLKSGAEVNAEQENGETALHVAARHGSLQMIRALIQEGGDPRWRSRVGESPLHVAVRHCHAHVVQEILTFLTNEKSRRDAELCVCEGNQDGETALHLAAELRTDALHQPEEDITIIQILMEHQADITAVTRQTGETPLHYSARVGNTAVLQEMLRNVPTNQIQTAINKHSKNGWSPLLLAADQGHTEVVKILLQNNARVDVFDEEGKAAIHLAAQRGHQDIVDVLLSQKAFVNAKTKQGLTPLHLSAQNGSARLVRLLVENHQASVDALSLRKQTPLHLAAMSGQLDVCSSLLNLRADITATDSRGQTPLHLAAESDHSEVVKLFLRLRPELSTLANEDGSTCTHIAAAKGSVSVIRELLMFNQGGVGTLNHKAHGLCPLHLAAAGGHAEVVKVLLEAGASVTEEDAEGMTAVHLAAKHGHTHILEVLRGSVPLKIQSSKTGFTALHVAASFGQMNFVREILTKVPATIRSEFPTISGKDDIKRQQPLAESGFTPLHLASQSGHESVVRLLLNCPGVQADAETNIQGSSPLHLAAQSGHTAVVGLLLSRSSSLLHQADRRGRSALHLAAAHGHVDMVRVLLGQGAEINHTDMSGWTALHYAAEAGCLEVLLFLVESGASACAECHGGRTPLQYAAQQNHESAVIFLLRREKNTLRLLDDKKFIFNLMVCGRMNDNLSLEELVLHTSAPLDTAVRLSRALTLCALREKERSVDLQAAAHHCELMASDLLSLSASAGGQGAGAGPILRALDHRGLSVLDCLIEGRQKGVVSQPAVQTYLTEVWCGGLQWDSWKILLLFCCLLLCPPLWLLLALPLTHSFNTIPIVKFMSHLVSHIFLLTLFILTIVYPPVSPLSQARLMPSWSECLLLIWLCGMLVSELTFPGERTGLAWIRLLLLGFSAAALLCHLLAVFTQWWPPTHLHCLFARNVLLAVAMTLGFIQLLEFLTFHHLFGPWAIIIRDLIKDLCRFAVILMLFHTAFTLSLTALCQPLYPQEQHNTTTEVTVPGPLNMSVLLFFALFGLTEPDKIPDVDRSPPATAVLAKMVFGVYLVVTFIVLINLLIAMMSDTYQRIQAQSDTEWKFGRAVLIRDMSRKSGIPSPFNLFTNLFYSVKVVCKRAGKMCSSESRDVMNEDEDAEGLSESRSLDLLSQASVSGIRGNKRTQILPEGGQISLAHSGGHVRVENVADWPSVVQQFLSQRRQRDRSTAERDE

For `O=C(COC(=O)c1cncc(Br)c1)NCc1ccco1`, the IC50 (Bcl-2-like protein 10) was 46.9 µM (active) and the IC50 [1] was 4.6 µM (active).
In the case of `COc1ccc(N)cc1-n1cnnn1`, the IC50 [2] is reported as > 100 µM (active).
For `COc1ccc(-c2csc(NC(=O)c3ccccc3NS(=O)(=O)c3ccc(C)cc3)n2)cc1`, the IC50 [3] was 3.03 µM (active), the IC50 [4] was 6.12 µM (active) and the IC50 [5] was 60.1 µM (active). For the same compound, the IC50 (Fatty acid synthase [6]) was 10.2 µM (active) and the IC50 (Fatty acid synthase [7]) was 6.07 µM (active).
In the case of `CC(C)c1ccc(OCC(=O)NC(=S)Nc2ccc3c4c(cccc24)CC3)cc1`, the EC50 [8] is reported as > 79.4 µM (not active), the EC50 [9] is reported as > 79.4 µM (not active) and the EC50 [10] is reported as > 79.4 µM (not active).
In the case of `CC(C)(C)c1ccc2c(c1)OC(C(=O)N/N=C\c1ccc(-c3cccc(C(=O)O)c3)o1)CO2` (stereo not given), the IC50 [3] is reported as > 50 µM (active).
With `COCCCn1c(S)nnc1-c1ccc(Cl)cc1` the IC50 [11] was > 100 µM (inactive) and the IC50 [12] was 4.57 µM (active).
In the case of `C[N+](C)(C)C/C=C1/COCO1`, the EC50 (Mucolipin-3) is reported as 4.76 µM (active), the EC50 (Ion channel NompC) is reported as 17.6 µM (not active) and the IC50 [13] is reported as 1.89 µM (active). The IC50 [14] was 1.89 µM (active), the IC50 (Galanin receptor type 3) was > 29.9 µM (inactive) and the EC50 (cells) was > 29.9 µM (inactive).
